Results reported in US7199097B1, “Peptide fragments having cell death inhibitory activity” (Juridical Foundation The Chemo-Sero-Therapeutic Research …, priority 1998, dated 2007).
Non-standard residues stand in square brackets, D forms with d. Sec = N[C@@H](C[SeH])C(=O)O

Key:
Format in all cases: cell-based, human
[1] = tested on: Dami cells; test: Cell death induced by fatty acid in serum free culture of Dami cells; conditions: for induction of cell death: 10 μM, serum free culture in the absence of selenoprotein P; for effective concentration inhibiting cell death: in the presence of 4 μM linoleic acid
Description: (§1) To 1 ml Dami cells (1×10^6 cells/dish/3 ml), which can be subcultured in serum free medium SFO3 (manufactured by Sanko Jun-yaku K. K.) containing 0.05 μM 2ME and 0.1% BSA, was added 2 ml 1:2:2 mixed medium (SA medium) of RPMI 1640/D-MEM/F-12. The cells were cultured for three days and recovered for assay. The cells were washed twice with SA/0.05% fatty acid free BSA (manufactured by Wako Jun-yaku K. K.) and suspended at 3×10^4 cells/ml in the same medium containing 2 to 16 μM arachidonic acid, linoleic acid or linolenic acid. The cell suspension was added to a 96-well plate in each 198 μl for wells for sample addition or in each 100 μl for wells for serial dilution.
To the wells for sample addition was added each 2 μl of 100 μM assay sample and, after stirring, a serial dilution was made with the wells containing 100 μl cell suspension. The plate was incubated at 37° C. in CO2 incubator for 4 to 5 days.

[2] = tested on: Dami cells; test: Cell death-inhibitory activity in Dami cells, serum free culture with HSA, serial dilution
Text: For screening factors having the cell death-inhibitory activity, a culture system needs to be established where cell death is induced. […] A diluted sample of active fractions may be added to this culture system to thereby estimate the cell death-inhibitory activity.
Based on the assay system as described above, the present inventors have aimed at components within the living body, especially those derived from blood, and thoroughly investigated for searching the activity of interest. […] For the purpose of quantification of the cell death-inhibitory activity as used herein, dilution of not more than 100-folds is indicated as “0” while in case of dilution of more than 100-folds, a figure of said dilution per se is used for indicating the activity.
To 1 ml Dami cells (described in Greenberg S. M. et al., Blood, vol. 72, p. 1968–1977 (1988); 1×10^6 cells/dish/3 ml), which can be subcultured in serum free medium SFO3 (manufactured by Sanko Jun-yaku K. K.) containing 0.05 μM 2ME and 0.1% BSA, was added 2 ml 1:2:2 mixed medium (SA medium) of RPMI 1640/D-MEM/F-12. The cells were cultured for three days and recovered for assay. The cells were washed twice with 50% PBS/SA/0.03% HSA (manufactured by SIGMA) and suspended in the same medium at 3×10^4 cells/ml. The cell suspension was added to a 96-well plate in each 200 μl for wells for sample addition or in each 100 μl for wells for serial dilution. To the wells for sample addition was added 2 μl assay sample and, after stirring, a serial dilution was made with the wells containing 100 μl cell suspension. The plate was incubated at 37° C. in CO2 incubator for 4 to 5 days followed by estimation.

[3] = tested on: Dami cells; test: Comparison with other antioxidants: cell death in serum free culture of Dami cells in the presence of HSA
Description: It was estimated to what extent vitamin E, known as being useful as an antioxidant to lipid oxidation, and catalase, acting for removal of hydrogen peroxide, could inhibit cell death induced in the assay system of the present invention while serum free culture in the presence of HSA.
as §1, with “added […]” for “added 2”, “with 50% PBS/SA/0.03% HSA” for “with SA/0.05% fatty acid free BSA”, “by SIGMA)” for “by Wako Jun-yaku K. K.)”, “suspended” for “suspended at 3×10^4 cells/ml”, “medium at 3×10^4 cells/ml.” for “medium containing 2 to 16 μM arachidonic acid, linoleic acid or linolenic acid.”, “each 190” for “each 198”
To the wells for sample addition was added each 10 μl of assay sample, i.e. 20 μM vitamin E, catalase or the selenoprotein P fragment and, after stirring, a serial dilution was made with the wells containing 100 μl cell suspension. The plate was incubated at 37° C. in CO2 incubator for 4 to 5 days followed by estimation. For estimation, a sample concentration necessary for cell death inhibition was compared to each other on Day 4 and thereafter. […] The selenoprotein P fragment could inhibit cell death up to 60 pM. From the fact that vitamin E did inhibit cell death in the assay system of the present invention, it was estimated that peroxidization of fatty acids bound to HSA (SIGMA) might be responsible for cell death induction. Moreover, it was expected that the selenoprotein P fragment, which inhibited cell death more effectively than vitamin E, would also act much more efficiently to events to which vitamin E was know to be effective.

docosatrienoic acid
induction of cell death [1]: induced cell death

superoxide dismutase
cell death-inhibitory activity (in words) ([2]; each 70 μM of the samples): some activity
cell death-inhibitory activity relative to the peptide fragment of the present invention ([2]; each 70 μM of the samples): about 1/100
cell death-inhibitory activity relative to the peptide fragment of the present invention ([2]; each 70 μM of the samples, listed as SOD): 1/100

docosadienoic acid
induction of cell death [1]: induced cell death

catalase
cell death-inhibitory activity (in words) ([3]; serial dilution from 20 μM sample): no cell death-inhibitory activity

CCCCC/C=C\C/C=C\CCCCCCCC(=O)O [linoleic acid]
induction of cell death [1]: induced cell death

CCCCC/C=C\C/C=C\C/C=C\C/C=C\CCCC(=O)O [arachidonic acid]
induction of cell death [1]: induced cell death

CCCCC/C=C\C/C=C\C/C=C\C/C=C\CCCCCC(=O)O [adrenic acid]
induction of cell death [1]: induced cell death

vitamin E
inhibition of cell death at 60 nM ([3]; 60 nM): could not
sample concentration up to which cell death is inhibited ([3]; Day 4 and thereafter, serial dilution): 125 nM
effective concentration inhibiting cell death [1]: about 100 nM

eicosadienoic acid
induction of cell death [1]: induced cell death

CCCCC/C=C\C/C=C\C/C=C\CCCCCCC(=O)O [dihomo-γ-linolenic acid]
induction of cell death [1]: induced cell death

B1: Full-length selenoprotein P: full-length selenoprotein P prepared from plasma with the antibody affinity column (protein)
chain: ESQDQSSLCKQPPAWSIRDQDPMLNSNGSVTVVALLQAS[Sec]YLCIIEASKLEDLRVKLKKEGYSNISYIVVNHQGISSRLKYTHLKNKVSEHIPVYQQEENQTDVWTLLNGSKDDFLIYDRCGRLVYHLGLPFSFLTFPYVEEAIKIAYCEKKCGNCSLTTLKDEDFCKRVSLATVDKTVETPSPHYHHEHHHNHGHQHLGSSELSENQQPGAPNAPTHPAPPGLHHHHKHKGQHRQGHPENRDMPASEDLQDLQKKLCRKRCINQLLCKLPTDSELAPRS[Sec]CCHCRHLIFEKTGSAIT[Sec]QCKENLPSLCS[Sec]QGLRAEENITESCQ[Sec]RLPPAA[Sec]QISQQLIPTEASAS[Sec]R[Sec]KNQAKK[Sec]E[Sec]PSN
modifications: ends and bridges not checked
Specific activity ([2]; Table 3, activity per protein): <2500
Activity ([2]; Table 3, fold dilution up to which cells survive): <100
cell death-inhibitory activity per proteins compared with the fragment ([2]; purified with anti-selenoprotein P antibody column): much lower
effective concentration inhibiting cell death [1]: about 100 nM
